The values below come from patent publication US20260152485A1, “ISOINDOLINONE DERIVATIVE HAVING QUINOLINE AMIDE STRUCTURE, AND USE THEREOF” (ONCORD BIO INC, priority 2022, published 2026).

Data set [1] has as its system NCI-H1155 (lung cancer cells). Put plainly: CytoX cell viability assay, NCI-H1155 cells. Format: cell-based. The conditions noted are these: 72 hours; for viability at 0.01 µM / viability at 0.5 µM: Homo sapiens. The procedure: The viability of NCI-H1155 (lung cancer cells) was measured using the CytoX cell viability assay kit (LPS Solution, #CYT3000). NCI-H1155 cells were seeded in a 12-well plate, and each compound of the present disclosure and a comparative compound (CC-90009) were treated at 10 nM and 500 nM concentrations for 72 hours. CytoX solution was then added to the cells and incubated for 1 hour.

Data set [2] relates to KG-1 cancer cells. Kind of data set: Cytotoxicity assay (WST-1), KG-1 cells. Format: cell-based. Particulars: Homo sapiens, 72 hours. The protocol: Cancer cells (KG-1) were seeded at a density of 10,000 cells per well in 96-well plates. The compound of the present disclosure and control compounds (Comparative Compounds 1, 2, and 3) were treated at predetermined concentrations. After 72 hours, the cells were treated with WST-1 reagent for 1 hour. Then, absorbance was read at 450 nm using a SpectraMax spectrophotometer to determine cell viability.
A general note: Tetrazolium dyes change colour on reduction, which living cells bring about.

By viability is commonly meant a read-out of living cells in per cent, often relative to untreated cells. A high value points to better survival. What is called IC50 is the concentration that gives 50% inhibition.

SMILES strings stand for the structures.

In the case of `Cc1ccccc1-c1cc(C(=O)NCc2ccc3c(c2)CN(C2CCC(=O)NC2=O)C3=O)c2ccccc2n1` (stereo not shown) [Cpd. 13, N-((2-(2,6-dioxopiperidin-3-yl)-1-oxoisoindolin-5-yl)methyl)-2-(o-tolyl)quinoline-4-carboxamide], the viability at 0.01 µM in data set [1] (10 nM) turned out to be 32%. Moreover, the viability at 0.5 µM in data set [1] (500 nM) was found to be 26%. In data set [2], `O=C1CCC(N2Cc3cc(CNC(=O)c4cc5ccccc5cn4)ccc3C2=O)C(=O)N1` (stereo not shown) [compound 1, N-((2-(2,6-dioxopiperidin-3-yl)-1-oxoisoindolin-5-yl)methyl)isoquinoline-3-carboxamide, reference compound] gave an IC50 of over 10000 nM. `O=C1CCC(N2Cc3cc(CNC(=O)c4cc(Cl)nc5ccccc45)ccc3C2=O)C(=O)N1` (stereo not shown) [Cpd. 8, 2-chloro-N-((2-(2,6-dioxopiperidin-3-yl)-1-oxoisoindolin-5-yl)methyl)quinoline-4-carboxamide]: in data set [1] (10 nM), the viability at 0.01 µM is 86%. Besides, in data set [1] (500 nM), the viability at 0.5 µM turned out to be 23%. `O=C1CCC(N2Cc3cc(CNC(=O)c4ccnc5ccccc45)ccc3C2=O)C(=O)N1` (stereo not shown) [Cpd. 9, N-((2-(2,6-dioxopiperidin-3-yl)-1-oxoisoindolin-5-yl)methyl)quinoline-4-carboxamide]: the viability at 0.01 µM in data set [1] (10 nM) amounted to 88%. The viability at 0.5 µM in data set [1] (500 nM) was found to be 25%. In data set [2], `O=C1CCC(N2Cc3cc(CNC(=O)c4ccc5cc(Cl)ccc5n4)ccc3C2=O)C(=O)N1` (stereo not shown) [compound 3, 6-chloro-N-((2-(2,6-dioxopiperidin-3-yl)-1-oxoisoindolin-5-yl)methyl)quinoline-2-carboxamide, reference compound] displayed an IC50 of 4100 nM. On the same count and under the same terms, for `CC(C)c1ccc(-c2cc(C(=O)NCc3ccc4c(c3)CN(C3CCC(=O)NC3=O)C4=O)c3ccccc3n2)cc1` (stereo not shown) [Cpd. 2, N-((2-(2,6-dioxopiperidin-3-yl)-1-oxoisoindolin-5-yl)methyl)-2-(4-isopropylphenyl)quinoline-4-carboxamide] the value was 1.5 nM. Consider `O=C1CCC(N2Cc3cc(CNC(=O)c4cc(-c5ccncc5)nc5ccccc45)ccc3C2=O)C(=O)N1` (stereo not shown) [Cpd. 7, N-((2-(2,6-dioxopiperidin-3-yl)-1-oxoisoindolin-5-yl)methyl)-2-(pyridin-4-yl)quinoline-4-carboxamide], for which, in data set [1] (10 nM), the viability at 0.01 µM was 50%. Further, the viability at 0.5 µM in data set [1] (500 nM) amounted to 5%. `Cc1ccc2nc(-c3ccccc3)cc(C(=O)NCc3ccc4c(c3)CN(C3CCC(=O)NC3=O)C4=O)c2c1` (stereo not shown) [Cpd. 3, N-((2-(2,6-dioxopiperidin-3-yl)-1-oxoisoindolin-5-yl)methyl)-6-methyl-2-phenylquinoline-4-carboxamide] showed an IC50 in data set [2] of 14 nM. `Cc1cccc2c(C(=O)NCc3ccc4c(c3)CN(C3CCC(=O)NC3=O)C4=O)cc(-c3cccnc3)nc12` (stereo not shown) [Cpd. 10, N-((2-(2,6-dioxopiperidin-3-yl)-1-oxoisoindolin-5-yl)methyl)-8-methyl-2-(pyridin-3-yl)quinoline-4-carboxamide] gave a viability at 0.01 µM in data set [1] (10 nM) of 3%. Also, the viability at 0.5 µM in data set [1] (500 nM) turned out to be 4%. For the compound `O=C1CCC(N2Cc3cc(CNC(=O)c4cc(-c5ccccc5)nc5ccccc45)ccc3C2=O)C(=O)N1` (stereo not shown) [Cpd. 1, N-((2-(2,6-dioxopiperidin-3-yl)-1-oxoisoindolin-5-yl)methyl)-2-phenylquinoline-4-carboxamide], the IC50 in data set [2] was determined as 0.8 nM. The same measure, in the same setting: for `Cc1cccc2c(C(=O)NCc3ccc4c(c3)CN(C3CCC(=O)NC3=O)C4=O)cc(-c3ccccc3)nc12` (stereo not shown) [Cpd. 4, N-((2-(2,6-dioxopiperidin-3-yl)-1-oxoisoindolin-5-yl)methyl)-8-methyl-2-phenylquinoline-4-carboxamide] the value was 1 nM. On to `O=C1CCC(N2Cc3cc(CNC(=O)c4cc(-c5ccc(F)cc5)nc5ccccc45)ccc3C2=O)C(=O)N1` (stereo not shown) [Cpd. 14, N-((2-(2,6-dioxopiperidin-3-yl)-1-oxoisoindolin-5-yl)methyl)-2-(4-fluorophenyl)quinoline-4-carboxamide], for which the viability at 0.01 µM in data set [1] (10 nM) came to 33%. In data set [1] (500 nM), this compound registered a viability at 0.5 µM of 23%.

On to `O=C1CCC(N2Cc3cc(CNC(=O)c4cc(-c5ccccc5F)nc5ccccc45)ccc3C2=O)C(=O)N1` (stereo not shown) [Cpd. 15, N-((2-(2,6-dioxopiperidin-3-yl)-1-oxoisoindolin-5-yl)methyl)-2-(2-fluorophenyl)quinoline-4-carboxamide], for which the viability at 0.01 µM in data set [1] (10 nM) came to 31%. Moreover, the viability at 0.5 µM in data set [1] (500 nM) was found to be 26%.

As for `Cc1c(-c2ccccc2)nc2ccccc2c1C(=O)NCc1ccc2c(c1)CN(C1CCC(=O)NC1=O)C2=O` (stereo not shown) [Cpd. 12, N-((2-(2,6-dioxopiperidin-3-yl)-1-oxoisoindolin-5-yl)methyl)-3-methyl-2-phenylquinoline-4-carboxamide], the viability at 0.01 µM in data set [1] (10 nM) is 59%. For the same compound, in data set [1] (500 nM), the viability at 0.5 µM is 24%. In the case of `O=C1CCC(N2Cc3cc(CNC(=O)C(F)(F)c4ccc(Cl)cc4)ccc3C2=O)C(=O)N1` (stereo not shown) [CC-90009, reference compound], the “NCI-H1155 (% viability) at 10 nM” value in data set [1] (10 nM) was determined as 85.0%. Besides, the “NCI-H1155 (% viability) at 500 nM” value in data set [1] (500 nM) was 23.25%. In data set [2], `O=C1CCC(N2Cc3cc(CNC(=O)c4cnc5ccccc5n4)ccc3C2=O)C(=O)N1` (stereo not shown) [compound 2, N-((2-(2,6-dioxopiperidin-3-yl)-1-oxoisoindolin-5-yl)methyl)quinolxaline-2-carboxamide, reference compound] displayed an IC50 of over 10000 nM.
